In patent US12336982B2 (RODEO THERAPEUTICS CORPORATION, priority 2018, dated 2025):

The molecules below were run against T1, recombinant 15-PGDH (Homo sapiens, UniProt P15428). Details: recombinant human 15-PGDH, in vitro; read-out: PDGH Assay-IC50.
T1 sequence (P15428 1-266): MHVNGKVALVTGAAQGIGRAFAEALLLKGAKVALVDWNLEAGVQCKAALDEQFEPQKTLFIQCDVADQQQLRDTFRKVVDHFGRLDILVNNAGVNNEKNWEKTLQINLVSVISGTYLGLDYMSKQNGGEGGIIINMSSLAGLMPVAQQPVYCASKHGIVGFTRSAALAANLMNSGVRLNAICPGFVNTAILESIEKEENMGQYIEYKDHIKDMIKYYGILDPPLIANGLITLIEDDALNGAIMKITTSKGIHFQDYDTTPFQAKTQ
Format: biochemical
Text: The Recombinant 15-PGDH is human unless otherwise specified.

SMILES	IC50 [nM]
CN(CCO)c1ncc(-c2cc(-c3ccccc3)c3c(N)c([S@+]([O-])C4CCC4)sc3n2)cn1 [Example 179]	< 2.5
CN(CCO)c1ncc(-c2cc(-c3ccccc3)c3c(N)c([S@@+]([O-])C4CCC4)sc3n2)cn1 [Example 180]	≥ 10
Nc1c([S@+]([O-])C2CCC2)sc2nc(-c3cnc(NCCO)nc3)cc(-c3ncccc3F)c12 [Example 181]	< 2.5
Nc1c([S@@+]([O-])C2CCC2)sc2nc(-c3cnc(NCCO)nc3)cc(-c3ncccc3F)c12 [Example 182]	≥ 10
Nc1c([S@+]([O-])C2CCC2)sc2nc(-c3cnc(NCCOCCO)nc3)cc(-c3ccccc3)c12 [Example 184]	< 2.5
Nc1c([S@@+]([O-])C2CCC2)sc2nc(-c3cnc(NCCOCCO)nc3)cc(-c3ccccc3)c12 [Example 185]	≥ 10
COCCC[S+]([O-])c1sc2nc(-c3cnc(N(C)CCO)nc3)cc(C(F)(F)F)c2c1N (centres unmarked) [Example 187]	2.5 to 10
CN(CCO)c1ncc(-c2cc(C(F)(F)F)c3c(N)c([S+]([O-])C4CCC4)sc3n2)cn1 (centres unmarked) [Example 188]	2.5 to 10
Nc1c([S+]([O-])C2CCC2)sc2nc(-c3cccnc3)nc(C3CC3)c12 (centres unmarked) [Example 189]	< 2.5
COCCC[S+]([O-])c1sc2nc(-c3cccnc3)nc(C3CC3)c2c1N (centres unmarked) [Example 191]	2.5 to 10
Nc1c([S+]([O-])C2CCC2)sc2nc(-c3cnc(NCCO)nc3)cc(-c3cccc(Cl)c3)c12 (centres unmarked) [Example 192]	< 2.5
Nc1c([S+]([O-])C2CCC2)sc2nc(-c3cnc(NCC(CO)CO)nc3)cc(-c3ccccc3)c12 (centres unmarked) [Example 193]	< 2.5
Nc1c([S+]([O-])C2CCC2)sc2nc(-c3cnc(N4CCOCC4)nc3)cc(-c3ccccc3)c12 (centres unmarked) [Example 194]	2.5 to 10
Nc1c([S+]([O-])C2CCC2)sc2nc(-c3cnc(N(CCO)CCO)nc3)cc(-c3ccccc3)c12 (centres unmarked) [Example 197]	< 2.5
Nc1c([S+]([O-])C2CCC2)sc2nc(-c3cncnc3)cc(C(F)(F)F)c12 (centres unmarked) [Example 204]	< 2.5
Nc1c([S@+]([O-])C2CCC2)sc2nc(-c3cnc(NCCO)nc3)cc(C(F)(F)F)c12 [Example 205]	< 2.5
COCCC[S@@+]([O-])c1sc2nc(-c3cnc(NCCO)nc3)cc(C(F)(F)F)c2c1N [Example 207]	< 2.5
COCC[S+]([O-])c1sc2nc(-c3cnc4nn(C)cc4c3)cc(C(F)(F)F)c2c1NC(C)=O (centres unmarked) [Example 208]	≥ 10
Cn1ccc(-c2cc(-c3ccnnc3)nc3sc([S+]([O-])C4CCC4)c(N)c23)n1 (centres unmarked) [Example 213]	< 2.5
Cn1nccc1-c1cc(-c2cnc3c(=O)n(C)ccc3c2)nc2sc([S+]([O-])C3CCC3)c(N)c12 (centres unmarked) [Example 216]	< 2.5
Cc1nn(C)cc1-c1cc(-c2cnc(N)nc2)nc2sc([S+]([O-])C3CCC3)c(N)c12 (centres unmarked) [Example 218]	< 2.5
Nc1c([S@+]([O-])C2CCC2)sc2nc(-c3cc(=O)[nH]cn3)cc(-c3ccccc3)c12 [Example 219]	< 2.5
Nc1c([S+]([O-])C2CCC2)sc2nc(-c3cnc(CO)nc3)cc(-c3ccccc3)c12 (centres unmarked) [Example 221]	< 2.5
Nc1c([S+]([O-])C2CCC2)sc2nc(-c3cnc(NCCO)nc3)cc(C3COC3)c12 (centres unmarked) [Example 222]	< 2.5
Cn1nccc1-c1cc(-c2cnc(O)nc2)nc2sc([S+]([O-])C3CCC3)c(N)c12 (centres unmarked) [Example 223]	< 2.5
Cn1nccc1-c1cc(-c2cnc(O)nc2)nc2sc([S@+]([O-])C3CCC3)c(N)c12 [Example 224]	< 2.5
Cn1nccc1-c1cc(-c2cnc(O)nc2)nc2sc([S@@+]([O-])C3CCC3)c(N)c12 [Example 225]	≥ 10

Results, then the molecule that gave them:

IC50 [nM]	SMILES
2.5 to 10	COCC[S+]([O-])c1sc2nc(-c3cncnc3)cc(-c3ccnn3C)c2c1N (centres unmarked) [Example 175]
< 2.5	COCC[S+]([O-])c1sc2nc(-c3cnc4nn(C)cc4c3)cc(C3CC3)c2c1N (centres unmarked) [Example 176]
< 2.5	Nc1c([S+]([O-])C2CCC2)sc2nc(-c3cncnc3)cc(-c3ccc(OCCO)cc3)c12 (centres unmarked) [Example 183]
2.5 to 10	COCC[S+]([O-])c1sc2nc(-c3cnc(N(C)CCO)nc3)cc(C(F)(F)F)c2c1N (centres unmarked) [Example 186]
< 2.5	COCC[S+]([O-])c1sc2nc(-c3cccnc3)nc(C3CC3)c2c1N (centres unmarked) [Example 190]
< 2.5	Cn1nccc1-c1cc(-c2cncnc2)nc2sc([S+]([O-])C3CCC3)c(N)c12 (centres unmarked) [Example 195]
< 2.5	COCC[S+]([O-])c1sc2nc(-c3cnc(N)nc3)cc(-c3cnn(C)c3)c2c1N (centres unmarked) [Example 196]
< 2.5	COCC[S@@+]([O-])c1sc2nc(-c3cncnc3)cc(C(F)(F)F)c2c1N [Example 198]
≥ 10	COCC[S@+]([O-])c1sc2nc(-c3cncnc3)cc(C(F)(F)F)c2c1N [Example 199]
< 2.5	COCCC[S@@+]([O-])c1sc2nc(-c3cncnc3)cc(C(F)(F)F)c2c1N [Example 200]
≥ 10	COCCC[S@+]([O-])c1sc2nc(-c3cncnc3)cc(C(F)(F)F)c2c1N [Example 201]
< 2.5	COCC[S@@+]([O-])c1sc2nc(-c3cnc(N)nc3)cc(C(F)(F)F)c2c1N [Example 202]
< 2.5	COCCC[S@@+]([O-])c1sc2nc(-c3cnc(N)nc3)cc(C(F)(F)F)c2c1N [Example 203]
< 2.5	COCC[S@@+]([O-])c1sc2nc(-c3cnc(NCCO)nc3)cc(C(F)(F)F)c2c1N [Example 206]
< 2.5	COCCC[S+]([O-])c1sc2nc(-c3ccnnc3)cc(-c3ccccc3)c2c1N (centres unmarked) [Example 209]
< 2.5	COCC[S+]([O-])c1sc2nc(-c3ccnnc3)cc(-c3ccccc3)c2c1N (centres unmarked) [Example 210]
< 2.5	COCC[S@@+]([O-])c1sc2nc(-c3ccnnc3)cc(-c3ccccc3)c2c1N [Example 211]
≥ 10	COCC[S@+]([O-])c1sc2nc(-c3ccnnc3)cc(-c3ccccc3)c2c1N [Example 212]
< 2.5	COCC[S+]([O-])c1sc2nc(-c3ccc4[nH]nnc4c3)cc(-c3ccnn3C)c2c1N (centres unmarked) [Example 214]
< 2.5	Nc1c([S@+]([O-])C2CCC2)sc2nc(-c3cncnc3)cc(-c3ccnn3C3CC3)c12 [Example 215]
< 2.5	COCC[S@@+]([O-])c1sc2nc(-c3cc(=O)n(C)cn3)cc(-c3ccccc3)c2c1N [Example 220]
< 2.5	COCC[S+]([O-])c1sc2nc(-c3cnc4c(cnn4C)c3)cc(C3CC3)c2c1N (centres unmarked) [Example 226]
< 2.5	COCC[S+]([O-])c1sc2nc(-c3cncnc3)cc(-c3ncccn3)c2c1N (centres unmarked) [Example 229]
< 2.5	COCC[S@@+]([O-])c1sc2nc(-c3cncnc3)cc(-c3ncccn3)c2c1N [Example 230]
≥ 10	COCC[S@+]([O-])c1sc2nc(-c3cncnc3)cc(-c3ncccn3)c2c1N [Example 231]
< 2.5	COCCNc1ncc(-c2cc(-c3ncccn3)c3c(N)c([S+]([O-])C4CCC4)sc3n2)cn1 (centres unmarked) [Example 232]
< 2.5	COCCC[S+]([O-])c1sc2nc(-c3cncnc3)cc(-c3cnccn3)c2c1N (centres unmarked) [Example 233]
≥ 10	COCCC[S@@+]([O-])c1sc2nc(-c3cncnc3)cc(-c3cnccn3)c2c1N [Example 234]
< 2.5	COCCC[S@+]([O-])c1sc2nc(-c3cncnc3)cc(-c3cnccn3)c2c1N [Example 235]
